Series [1] deals with MNV. Briefly: MNV CPE reduction assay (MTS) in RAW 264.7 cells. It is filed as cell-based, mouse norovirus (MNV-1.CW1). The settings on record: Norovirus, RAW264.7, in Mus musculus, Table 2, RAW 264.7, range 0.6–100 µM, at least three independent experiments. The protocol: The newly prepared compounds 2–7 and 34–35 were evaluated for their antiviral effect against the genogroup V mouse norovirus (MNV) using the mouse macrophage cell line RAW264.7. This assay evaluates the ability of the compounds to protect infected cells from the virus-induced cytopathic effect, thus being suitable to identify inhibition of virus replication at every step of the virus life cycle, and representing a robust cellular assay available for the rapid evaluation of potential norovirus inhibitors. Compounds identified using MNV have shown effects against HuNoV in vitro and in vivo, as in the case of nucleoside RdRp inhibitor 2′-C-methylcytidine (2CMC)[34]–[36]. Unfortunately, despite not presenting the aqueous solubility issues we had previously encountered for 1[29], no significant antiviral effect could be observed in this assay for the new compounds up to the maximum concentration tested. The new structural modifications, despite retaining inhibition of the RdRp in an isolated enzyme activity assay and showing no cytotoxic effects at the test concentrations in the MNV antiviral assay (Supplementary Table S1), are correlated with a lack of antiviral activity. As these new structures present the same limitation of most non-nucleoside HuNoV polymerase inhibitors reported so far[22], we were prompted to apply a different computer-aided strategy to further modify the scaffold of 1, with the aim to achieve an antiviral effect in cellular systems. […]
Since the main scope of this work was to find new norovirus inhibitors which show antiviral effects against both the HuNoV RdRp and in norovirus-infected cells, priority was given to the evaluation of most of the new molecules for their antiviral activity against MNV in infected RAW cells. The nucleoside 2′-C-methylcytidine was used as positive control. The test compounds were evaluated at eight different concentrations (range 0.6–100 µM) and their ability to reduce the virus-induced cytopathic effect was assessed.
(§1) Cells and virus: MNV (virus strain MNV-1.CW1) was propagated in RAW 264.7 cells grown in DMEM (Life Technologies, Gent, Belgium) supplemented with 10% or 2% FBS, 2 mM L-glutamine, 20 mM HEPES, 0.075 g/L sodium bicarbonate, 1 mM sodium pyruvate, 100 U penicillin/mL and 100 µg/mL streptomycin at 37 °C in a humidified atmosphere of 5% CO2. The human norovirus GI.1 replicon harboring gastric tumor-1 cell line (HGT-NV) (kindly provided by Dr. Ian Goodfellow, University of Cambridge) was maintained in DMEM supplemented with 10% FBS, 2mM L-glutamine, 0.075 g/L sodium bicarbonate and 1.0 mg/ml of Geneticin (G418; Life Technologies), at 37 °C in a humidified atmosphere of 5% CO2[34].
Antiviral assay with MNV: The antiviral activity of the Compounds was determined using an MTS [3-(4,5-dimethylthiazol-2-yl)-5-(3-carboxymethoxyphenyl)-2-(4-sulfophenyl)-2H-tetrazolium]-based cytopathic effect (CPE) reduction assay. […] Then, a MTS-phenazinemethosulfate (MTS/PMS) stock solution [(2 mg/mL MTS (Promega, Leiden, The Netherlands) and 46 µg/mL PMS (Sigma–Aldrich, Bornem, Belgium) in PBS at pH 6–6.5)] was diluted 1/20 in MEM (Life Technologies, Gent, Belgium) and 75 µL were added to each well. After 2 h, the optical density (OD) was read at 498 nm. The %CPE reduction was calculated as [(ODtreated)MNV − ODVC]/[ODCC − ODVC] × 100, where ODCC represents the OD of the uninfected untreated cells, whereas ODVC and (ODtreated)MNV represent the OD of infected untreated cells and virus-infected cells treated with a compound concentration, respectively. The 50% effective concentration (EC50) was defined as the compound concentration that protected 50% of the cells from virus-induced CPE[34].

Series [2] in a line: Cytotoxicity by the MTS method on uninfected cells. It counts as cell-based. The settings on record: mouse, uninfected RAW 264.7 cells, Table 2, at least three independent experiments. The protocol: Cytotoxicity: The cytotoxicity of the Compounds was evaluated by the MTS method, by exposing uninfected cells to the same concentrations of compounds for 3 days. The %cell viability was calculated as (ODtreated/ODCC) × 100, where ODCC is the OD of uninfected untreated cells and ODtreated are uninfected cells treated with compound. The CC50 was defined as the compound concentration that reduces the number of viable cells by 50%[34].
On the technique in general: Tetrazolium assays rely on reduction of a dye to a coloured formazan, in cell work by metabolically active cells.

The test system of series [3] is HuNoV GI.1 replicon. Kind of series: HuNoV GI replicon assay (HGT-NV cells, qRT-PCR). It counts as cell-based, human norovirus GI.1. The protocol:
Given that in this system the gene encoding for the major capsid protein is replaced by a neomycin resistance gene, no new virus particles will be produced but the non-structural proteins are expressed and the replication of the genomic RNA can be studied.
as §1
Antiviral assay with the HGT-NV replicon: The inhibitory effect of Compounds on human norovirus replication was assessed by quantification of the levels of HuNoV GI replicon RNA and of the reference (housekeeping) gene β-actin mRNA [by quantitative reverse transcription polymerase chain reaction (qRT-PCR)]. To this end, HGT cells (2000 cells/well) were seeded in 96-well plates, in complete DMEM without the selection marker G418. Following an incubation period of 24 h, a serial dilution of rupintrivir was added to the cultures. After 72 h of incubation, cell monolayers were washed with phosphate-buffered saline (PBS) and collected for quantification of RNA load by qRT-PCR. Intracellular RNA was extracted from cells using the cell-to-cDNA lysis buffer (Ambion, Life Technologies). For detection of HuNoV GI replicon RNA, forward (5′-CCG GCT ACC TGC CCA TTC-3′), reverse (5′-CCAGATCATCCTGATCGACAAG-3′) primers and probe (5′-FAM-ACATCGCATCGAGCGAGCACGTAC-TAMRA-3′) for the neomycin gene were used. For detection of β-actin mRNA, forward (5′-GGCATCCACGAAACTACCTT-3′), reverse (5′-AGCACTGTGTTGGCGTACAG-3′) primers and probe (5′-HEX-ATCATGAAGTGTGACGTGGACATCCG-BHQ1–3′) were used. One-step qRT-PCR was performed in a 20 µL reaction mixture containing 10 µl 2X iTaq Universal SYBR® Green one step reaction mix (Bio-rad, California, USA), 5.17 µl RNAse free water, 0.5 µl of iScript reverse transcriptase (Bio-rad, California, USA), 4 µl of the template RNA and either 300 nM of HuNoV GI replicon primers and probe, 300 nM of β-actin primers and 200 nM of probe. Cycling conditions were: reverse transcription at 50 °C for 10 min, initial denaturation at 95 °C for 3 min, followed by 40 cycles of denaturation at 95 °C for 15 s, annealing and extension at 60 °C for 30 seconds (Roche Lightcycler®96, Roche Diagnostics, Belgium). To determine the relative expression levels of HuNoV GI replicon RNA, β-actin was used as a normalizer and ratios were calculated using the Pfaffl method. The Expression Ratio (HuNoV GI Replicon/β-actin) was calculated as: Expression Ratio = (E HuNoV)^ΔCT, HuNoV (CC – TC)/(Eβ-actin)^ΔCT, β-actin (CC – TC), where E HuNoV and Eβ-actin represent the amplification efficiency (E = 10^–1/slope) for the HuNoV GI replicon and β-actin qRT-PCR reactions, respectively. ΔCT, HuNoV (CC – TC) is the Ct of untreated control cells (CC) minus the Ct of cells treated with a compound concentration (TC) obtained with HuNoV GI replicon primers and probe. ΔCT, β-actin (CC – TC) is the Ct of untreated control cells (CC) minus the Ct of cells treated with a compound concentration (TC) obtained with β-actin primers and probe. Efficiency values (E HuNoV and Eβ-actin) were determined for each qRT-PCR reaction.
In general terms: Replicon systems follow genome replication, usually without infectious particles.

Series [4] concerns HuNoV (GII.4) RdRp. Kind of series: Counter-screen gel-shift assay of primed elongation activity (PE44-NoV template). It counts as biochemical, human norovirus. Conditions: fixed concentration of 100 μM. The protocol: To further confirm RdRp inhibition and exclude any potential false positives from the first fluorescence RdRp assay, the eight molecules were then assessed using a gel-shift enzyme activity assay at a fixed concentration of 100 μM, following a procedure previously adopted by our research group.
Figure 5 A counter-screen gel-shift assay was used to confirm HuNoV (GII.4) RdRp inhibitory activity of compounds 2, 3, 34 and 35 (A), 4, 5, 6 (B) and 7 (C). The eight compounds were examined for inhibition of primed elongation activity. PE44-NoV RNA templates (32 nucleotides) were extended (44 nucleotides) by the RdRp in the absence of any test compounds (0.5% DMSO [vol/vol] negative control) or with test compounds at a fixed concentration of 100 μM. […] Full-length gels are presented in Supplementary Fig. S3.
(§2) Fluorescent RdRp activity assays were carried out as previously described[12],[29]. Briefly, RdRp activity was quantified by monitoring the formation of double-stranded RNA (dsRNA) from a single stranded homopolymeric template, poly(C) (Sigma Aldrich), using the fluorescent dye PicoGreen (Life Technologies, Carlsbad, CA, USA). RdRp assays were performed in 384-well plates, and each reaction mixture contained 400 ng enzyme, 45 μM GTP, 10 ng/μL poly(C) RNA, 2.5 mM MnCl2, 5 mM dithiothreitol, (DTT), 0.01% bovine serum albumin (BSA), and 0.005% Tween 20 in 20 mM Tris-HCl, pH 7.5, with a final reaction volume of 25 μL. The PPNDS and compound 1 were used as a positive controls. RdRps were incubated for 10 mins at 30 °C in the presence of the test compounds or the compound vehicle DMSO (0.5% vol/vol) before addition into the reaction mixture, which was then allowed to run 15 min at 30 °C then terminated with 10 mM EDTA, followed by PicoGreen staining and dsRNA quantitation. GraphPad Prism V6.05 (La Jolla, CA, USA) was used to plot the IC50 values. A secondary gel-based polymerase activity assay was used as a counter-screen as described below, to exclude the possibility of RdRp activity enhancement. Primed elongation activity was examined in a gel-based assay as previously described[12],[29] using the RNA template (PE44-NoV). Gels were imaged using BioRad (Hercules, CA, U.SA) Geldoc Universal Hood II, running BioRad Image Lab software, V4.1, build 16.
Background: A counterscreen serves to expose hits that act by an unwanted route or on another target.

Series [5] has as its target HuNoV (GII.4) RdRp (Norovirus Hu/GII.4/Sydney/NSW0514/2012/AU, UniProt K4L8Z7). Briefly: Quantitative fluorescent RdRp activity assay (PicoGreen, poly(C) template). It counts as biochemical, human norovirus Sydney 2012. The settings on record: HuNoV (GII.4) RdRp activity; six concentrations 0.1–100 µM; mean ± SD. The protocol: The newly synthesised compounds, including the carboxylate ester derivatives 34–35 and 7 from the Core Hopping approach, were evaluated for their enzymatic inhibition of human norovirus Sydney 2012 (HuNoV (GII.4)) RdRp activity in vitro, using a quantitative fluorescent assay. Compounds were tested at six different concentrations (concentration range examined: 0.1–100 µM) and compared to the relative activity of mock treated samples containing the vehicle only (0.5% DMSO [vol/vol]). PPNDS [Pyridoxal-5′-phosphate-6-(2′-naphthylazo-6′-nitro-4′,8′-disulfonate) tetrasodium salt], a previously reported potent inhibitor of NoV RdRp activity, and 1 were used as positive controls. Dose-dependent inhibitory response curves were used to establish IC50 values for the eight test compounds, as reported in Table 1 (see also Supplementary Fig. S1).
The newly prepared compounds 48–60 were initially evaluated against norovirus Sydney 2012 RdRp activity in vitro using a quantitative fluorescent assay. Compounds were tested at a fixed concentration of 20 µM and compared to the relative activity of mock treated samples. PPNDS and 1 were used as positive controls. […] These two rings are structural features present in 1 and in one of its derivatives we have previously reported. […] From these observations, the thiophene ring appears not to influence inhibitory activity. Derivatives in which the central core of 48 has been used to link the two terminal hydrophobic rings of 1 or of its derivatives we have previously reported[25] (55, 57, 58) appear to retain the RdRp inhibitory activity found for 48 (~20% at 20 µM). A similar effect is obtained when a sulfonyl group, as in our hit 1, is used to link ring 2, regardless if it is a thiazole (59) or an unsubstituted phenyl ring (60), to the rest of the molecule. […] Overall, even if showing a reduced biochemical activity in comparison with 1, some of the new derivatives can be considered as modest HuNoV RdRp inhibitors at 20 µM.
as §2

Setting [6] is: Norwalk virus, HGT-1, 72 h, read-out: EC50 values (column head printed 'M'), HuNoV GI replicon in HGT-1 cells, replicon RNA by qRT-PCR.

Like-named read-outs stand apart in the source and are kept apart here.

For the compound `O=C(NC(=S)Nc1ccc(N2CCN(S(=O)(=O)c3cccs3)CC2)cc1)c1ccccc1` [Compound 59, N-((4-(4-(Thiophen-2-ylsulfonyl)piperazin-1-yl)phenyl)carbamothioyl)benzamide], the EC50 (commonly the concentration needed to bring the measured effect to its halfway point) is 43.8 ± 16.9 µM in series [1]; 10 µM in series [3] (setting [6]); 10.9 ± 11.1 µM in series [3] (read-out: EC50 values (column head printed 'M'), HuNoV GI replicon in HGT-1 cells, 72 h, replicon RNA by qRT-PCR). Further, in series [2], the CC50 (in general, the concentration that lowers cell viability or growth by half) at 3 days was more than 100 µM. Further, the “EC50 values (column head printed 'M')” value in series [3] (HuNoV GI replicon in HGT-1 cells, 72 h, replicon RNA by qRT-PCR) is listed as “low micromolar range”.
With `Cc1nc(N=Nc2cc(S(=O)(=O)[O-])c3cc([N+](=O)[O-])cc(S(=O)(=O)[O-])c3c2)c(COP(=O)([O-])[O-])c(C=O)c1O.[Na+].[Na+].[Na+].[Na+]` [PPNDS, Pyridoxal-5′-phosphate-6-(2′-naphthylazo-6′-nitro-4′,8′-disulfonate) tetrasodium salt, reference compound], the “inhibition of primed elongation activity (gel-shift)” value in series [4] is reported as “complete inhibition”. In addition, the IC50 (as a rule, the concentration at which inhibition is half-maximal) in series [5] is 1500 ± 250 nM.
For the compound `CCOC(=O)/C=C/[C@H](C[C@@H]1CCNC1=O)NC(=O)[C@@H](CC(=O)[C@@H](NC(=O)c1cc(C)on1)C(C)C)Cc1ccc(F)cc1` [Rupintrivir, reference compound], in series [3] (setting [6]), the 50% effective concentration (EC50) was found to be 1.5 ± 0.4 µM.

The values are drawn from publication PMC6895199, “A new antiviral scaffold for human norovirus identified with computer-aided approaches on the viral polymerase” (Scientific Reports, 2019).
